Source: the supplement of paper PMC5844555

Legend:
Assay in all cases: 3' UTR reporter interaction score (median-centred robust z-score of log2 firefly/Renilla activity); higher = less repression of the 3' UTR reporter
Conditions in all cases: HEK293T; 48 h
EZH2 = system: EZH2
How it was run: (§1)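 For the interaction score, the firefly/Renilla ratio was log-transformed, expressed as a robust z-score per plate using median and median absolute deviation, and median-centred per miRNA; a more negative score indicates interaction. These scores come from at least two independent screens, averaged. Each screen used HEK293T cells at 10,000/well in 96-well plates, co-transfected with DharmaFECT Duo carrying 100 ng luc2P 3' UTR reporter, 20 ng pRL-TK and 2.5 pmol miRNA mimic, with luciferase read at 48 h.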

TP53 = system: TP53
How it was run: as §1

MYT1L = system: MYT1L
How it was run: as §1

NOTCH1 = system: NOTCH1
How it was run: as §1

RB1 = system: RB1
How it was run: as §1

FBXW7 = system: FBXW7
How it was run: as §1

MYC = system: MYC
How it was run: as §1

MYB = system: MYB
How it was run: as §1

ZEB2 = system: ZEB2
How it was run: as §1

HRAS = system: HRAS
How it was run: as §1

PHF6 = system: PHF6
How it was run: as §1

BRCA2 = system: BRCA2
How it was run: as §1

MYCN = system: MYCN
How it was run: as §1

PHOX2B = system: PHOX2B
How it was run: as §1

Sequence | 3' UTR reporter interaction score (EZH2) | 3' UTR reporter interaction score (TP53) | 3' UTR reporter interaction score (MYT1L) | 3' UTR reporter interaction score (NOTCH1) | 3' UTR reporter interaction score (RB1) | 3' UTR reporter interaction score (FBXW7) | 3' UTR reporter interaction score (MYC) | 3' UTR reporter interaction score (MYB) | 3' UTR reporter interaction score (ZEB2) | 3' UTR reporter interaction score (HRAS) | 3' UTR reporter interaction score (PHF6) | 3' UTR reporter interaction score (BRCA2) | 3' UTR reporter interaction score (MYCN) | 3' UTR reporter interaction score (PHOX2B)
UAAAGUGCUUAUAGUGCAGGUAG | -0.364 | -0.181 | -0.414 | 0.917 | 0.204 | -0.632 | -0.207 | -0.124 | 0.262 | 0.379 | 1.96 | 1.9 | -0.791 | 
UAAGGCACCCUUCUGAGUAGA | -2.69 | -0.0578 | 1.04 | -0.104 | -1.28 | 0.601 | -0.593 |  | 0.807 | 0.999 | -0.903 | 0.5 | -0.435 | 1.39
UACGUCAUCGUUGUCAUCGUCA | -0.223 | 0.00955 |  | -0.131 | 0.229 | 0.256 | -0.111 | -0.203 | -2.2 | 0.167 | -0.457 | 0.347 | -1.02 | 0.31
UAGCAGCACAUAAUGGUUUGUG |  | -0.405 | -2.1 | 0.0154 | -0.091 | -3.3 | 1.03 | -1.32 | 1.33 | 1.55 | 1 | -0.161 | -0.121 | 0.742
UAGGUAGUUUCCUGUUGUUGG | 0.324 | 0.913 | -0.34 | 0.244 | -0.415 | -0.0724 | -0.416 | 0.0231 | 0.639 | -0.324 | -0.855 | -0.449 |  | 0.179
UAGUAGACCGUAUAGCGUACG | -0.435 | 0.138 | 1.28 | 1.8 | 0.459 | -0.321 | -0.638 | 1.44 | 2.18 | -0.49 | 0.821 | -0.367 | 0.359 | 
UAUUGCACAUUACUAAGUUGC | -1.18 | -0.165 | 0.0117 | -0.36 | 0.119 | -3.29 | 0.647 |  | -0.436 | -0.69 | 0.521 | 0.064 | 1.19 | 
UCUCACACAGAAAUCGCACCCGUC |  | -0.669 | -0.241 | 0.283 | -0.308 | -0.236 | -3.89 | 0.485 | 0.106 | -1.52 | 0.199 | 1 | -1.33 | 0.123
UCUGCUCAUACCCCAUGGUUUCU | 0.623 | 0.807 | -0.849 | -0.475 | 1.62 | -0.521 | 0.772 | -1.65 | -0.101 | -0.642 | 1.4 | 1.96 | -0.385 | 
UGAGGUAGGAGGUUGUAUAGU | -3.52 | 0.0915 | -0.34 | -0.642 |  | 0.127 | -2.75 | 0.624 | -0.156 | 0.649 | -0.232 | 0.75 | -3.52 | 0.238
UGAGGUAGUAGGUUGUAUGGUU | -3.88 | -0.643 | 0.588 |  |  | 0.348 | -2.26 | 0.761 | 0.734 | 0.339 | 0.487 | 0.199 | -4.05 | -0.072
UGAUUGUAGCCUUUUGGAGUAGA | 0.191 | -0.415 | -0.331 |  | -0.751 | -0.741 | -1.19 | 1.56 | -1.2 | 1.52 | 0.465 | 1.26 | 0.938 | -0.496
UGUAAACAUCCUCGACUGGAAG | 0.0496 | -0.35 | 0.672 |  | 0.575 | 0.336 | -0.476 | 0.498 | -1.69 | 0.246 | -2.11 | -0.114 | -0.46 | 
UGUAACAGCAACUCCAUGUGGA | -1.3 | -0.515 | -0.161 | -0.0483 | -0.726 | -1.43 | -1.28 | 0.809 | 0.401 |  | 1.94 | 0.232 | 0.331 | -2.2
UGUCUUACUCCCUCAGGCACAU | -0.24 | 0.565 | -2.22 |  | 0.999 | 1.02 | -0.519 | -0.229 | -0.976 | -1.06 | 2.68 | 0.202 | -1.1 | 0.667
UUCUCCAAAAGGGAGCACUUUC | -0.381 | -0.24 | 2.01 | -0.166 | 1.31 | -0.759 | -0.329 | -0.361 | 1.08 | 0.596 | -0.0417 | -0.958 | 0.94 | 
UUGAAACAAUCUCUACUGAAC | 0.163 | -0.126 | 0.3 | 0.836 | -1.43 | 1.05 | 0.402 | -0.218 | 0.917 | -0.263 | -1.21 | -0.93 |  | 0.857
UUGUGUCAAUAUGCGAUGAUGU | 0.77 | -0.384 | -0.212 |  | 0.229 | -1.37 | 0.588 | -0.649 | 0.639 | 1.07 | 0.901 | -0.078 | -0.328 | -1.6
UUUGGCACUAGCACAUUUUUGC | 0.814 | -0.115 | -0.203 | 0.319 | 0.451 | -1.69 | 0.306 |  | 0.198 | 0.722 | -0.863 | 0.322 | 0.288 | 0.531
UUUGUGACCUGGUCCACUAACC | 0.358 | -1.6 | -0.568 | 0.65 | 0.728 | -0.879 | -1.92 | 0.254 | 0.152 |  | 0.815 | -0.491 | 0.167 | 0
